Values quoted from earlier work, collected in patent publication US20230190684A1, “METHODS OF TREATING COVID-19 WITH A NICLOSAMIDE COMPOUND” (priority 2020, published 2023).
Counter-ions that a name gives are not always drawn.

Assays:
[1] = in vivo
[2] = patients treated with niclosamide; literature (McEvoy 1995)

Structure (SMILES)	solubility in acetone (acetone)	solubility in ether, ethanol and chloroform (ether, ethanol and chloroform)	water solubility (water, 20° C.) [µg/mL]	systemic bioavailability [1]	Less frequently reported AEs: rash, oral irritation, fever, rectal bleeding, weakness, bad taste in mouth, sweating, palpitation, constipation, alopecia, oedema of an arm, backache, irritability [2] [%]	Other reported AEs: vomiting; abdominal discomfort possibly associated with anorexia, diarrhea, drowsiness, dizziness and headache [2]	dissolves in distilled water (distilled water, 20° C.) [mg/L]
O=C(Nc1ccc([N+](=O)[O-])cc1Cl)c1cc(Cl)ccc1O [Niclosamide, 5-chloro-N-(2-chloro-4-nitrophenyl)-2-hydroxybenzamide]	soluble	sparingly soluble	5 to 8	low	< 1	1-4 % of patients	–
O=C(Nc1ccc([N+](=O)[O-])cc1Cl)c1cc(Cl)ccc1O [ethanolamine salt, 5-chloro-salicyl-(2-chloro-4-nitro) anilide 2-aminoethanol salt]	–	–	–	–	–	–	180 to 280
